In the kinase profiling compilation of Christmann-Franck et al. (2016):

What was measured:
Experiment in all cases: Free Choice Kinase Assay Projects, Flashplate
AKT1 (human) = AKT1 (human) (UniProt P31749); conditions: compound 10.0 µM; ATP 3 µM
AURKA (human) = AURKA (human) (UniProt O14965); conditions: compound 10.0 µM; ATP 10 µM
AURKB (human) = AURKB (human) (UniProt Q96GD4); conditions: compound 10.0 µM; ATP 10 µM
AXL (human) = AXL (human) (UniProt P30530); conditions: compound 10.0 µM; ATP 0.3 µM
Sequence of AXL (human) (P30530 whole entry, looked up): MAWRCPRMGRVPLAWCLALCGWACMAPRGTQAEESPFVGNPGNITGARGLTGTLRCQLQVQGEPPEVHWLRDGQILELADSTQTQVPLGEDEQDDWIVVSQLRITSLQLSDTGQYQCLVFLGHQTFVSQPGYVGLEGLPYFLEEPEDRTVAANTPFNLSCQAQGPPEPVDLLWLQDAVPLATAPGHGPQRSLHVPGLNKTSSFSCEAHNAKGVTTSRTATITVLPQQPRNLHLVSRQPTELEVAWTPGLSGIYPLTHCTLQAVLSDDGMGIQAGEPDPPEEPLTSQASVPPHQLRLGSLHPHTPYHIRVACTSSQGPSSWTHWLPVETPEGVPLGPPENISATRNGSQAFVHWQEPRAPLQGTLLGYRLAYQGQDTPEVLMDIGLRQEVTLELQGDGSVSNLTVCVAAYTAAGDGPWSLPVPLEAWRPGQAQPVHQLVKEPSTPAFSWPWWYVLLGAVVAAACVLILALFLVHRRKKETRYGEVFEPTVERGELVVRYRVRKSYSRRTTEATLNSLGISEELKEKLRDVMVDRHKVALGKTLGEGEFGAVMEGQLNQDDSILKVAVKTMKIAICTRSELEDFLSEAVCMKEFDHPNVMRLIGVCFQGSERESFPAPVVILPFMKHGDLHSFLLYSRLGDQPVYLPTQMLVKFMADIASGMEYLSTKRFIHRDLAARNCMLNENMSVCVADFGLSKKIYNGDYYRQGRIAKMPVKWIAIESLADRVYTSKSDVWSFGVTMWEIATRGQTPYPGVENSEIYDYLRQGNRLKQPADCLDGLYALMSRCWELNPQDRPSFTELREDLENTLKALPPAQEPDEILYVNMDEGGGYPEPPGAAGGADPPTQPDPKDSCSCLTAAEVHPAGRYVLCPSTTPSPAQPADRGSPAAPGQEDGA

CDK2 CCNA2 (human) = CDK2 CCNA2 (human) (UniProt P24941+P20248); conditions: compound 10.0 µM; ATP 0.3 µM
Sequence of CDK2 CCNA2 (human) (P20248 whole entry, looked up, other chains not shown): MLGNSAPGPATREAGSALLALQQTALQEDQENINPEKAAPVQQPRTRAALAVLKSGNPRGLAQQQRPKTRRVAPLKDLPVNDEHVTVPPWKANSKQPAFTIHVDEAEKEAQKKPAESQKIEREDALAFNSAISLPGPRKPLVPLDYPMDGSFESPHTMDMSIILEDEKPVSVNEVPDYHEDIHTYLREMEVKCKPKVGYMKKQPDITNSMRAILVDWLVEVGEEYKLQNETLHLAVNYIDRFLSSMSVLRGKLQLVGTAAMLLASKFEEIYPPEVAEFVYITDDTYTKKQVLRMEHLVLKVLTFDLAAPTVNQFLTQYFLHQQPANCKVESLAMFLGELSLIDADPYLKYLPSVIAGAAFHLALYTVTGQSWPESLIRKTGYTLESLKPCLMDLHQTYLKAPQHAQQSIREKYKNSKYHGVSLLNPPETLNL

CDK4 CCND1 (human) = CDK4 CCND1 (human) (UniProt P11802+P24385); conditions: compound 10.0 µM; ATP 3 µM
CSNK2A1 (human) = CSNK2A1 (human) (UniProt P68400); conditions: compound 10.0 µM; ATP 0.1 µM
EGFR (human) = EGFR (human) (UniProt P00533); conditions: compound 10.0 µM; ATP 0.3 µM
EPHB4 (human) = EPHB4 (human) (UniProt P54760); conditions: compound 10.0 µM; ATP 1 µM
ERBB2 (human) = ERBB2 (human) (UniProt P04626); conditions: compound 10.0 µM; ATP 1 µM
IGF1R (human) = IGF1R (human) (UniProt P08069); conditions: compound 10.0 µM; ATP 1 µM
KDR (human) = KDR (human) (UniProt P35968); conditions: compound 10.0 µM; ATP 1 µM
MAP3K8 (human) = MAP3K8 (human) (UniProt P41279); conditions: compound 10.0 µM; ATP 3 µM
MAPK10 (human) = MAPK10 (human) (UniProt P53779); conditions: compound 10.0 µM; ATP 0.3 µM
Sequence of MAPK10 (human) (P53779 whole entry, looked up): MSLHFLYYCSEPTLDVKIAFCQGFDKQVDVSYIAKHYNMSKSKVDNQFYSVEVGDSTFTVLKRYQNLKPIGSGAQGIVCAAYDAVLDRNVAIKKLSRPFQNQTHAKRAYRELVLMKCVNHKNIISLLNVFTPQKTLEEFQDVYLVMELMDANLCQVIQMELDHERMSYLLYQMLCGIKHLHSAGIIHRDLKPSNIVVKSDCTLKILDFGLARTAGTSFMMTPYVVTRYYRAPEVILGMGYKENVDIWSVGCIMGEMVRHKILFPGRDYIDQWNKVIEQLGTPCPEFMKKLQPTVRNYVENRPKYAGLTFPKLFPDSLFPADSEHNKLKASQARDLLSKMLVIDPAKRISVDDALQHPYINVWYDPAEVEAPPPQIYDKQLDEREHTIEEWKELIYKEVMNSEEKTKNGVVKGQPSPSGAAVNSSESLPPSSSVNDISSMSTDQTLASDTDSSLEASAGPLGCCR

MAPK14 (human) = MAPK14 (human) (UniProt Q16539); conditions: compound 10.0 µM; ATP 1 µM
MET (human) = MET (human) (UniProt P08581); conditions: compound 10.0 µM; ATP 0.3 µM
Sequence of MET (human) (P08581 whole entry, looked up): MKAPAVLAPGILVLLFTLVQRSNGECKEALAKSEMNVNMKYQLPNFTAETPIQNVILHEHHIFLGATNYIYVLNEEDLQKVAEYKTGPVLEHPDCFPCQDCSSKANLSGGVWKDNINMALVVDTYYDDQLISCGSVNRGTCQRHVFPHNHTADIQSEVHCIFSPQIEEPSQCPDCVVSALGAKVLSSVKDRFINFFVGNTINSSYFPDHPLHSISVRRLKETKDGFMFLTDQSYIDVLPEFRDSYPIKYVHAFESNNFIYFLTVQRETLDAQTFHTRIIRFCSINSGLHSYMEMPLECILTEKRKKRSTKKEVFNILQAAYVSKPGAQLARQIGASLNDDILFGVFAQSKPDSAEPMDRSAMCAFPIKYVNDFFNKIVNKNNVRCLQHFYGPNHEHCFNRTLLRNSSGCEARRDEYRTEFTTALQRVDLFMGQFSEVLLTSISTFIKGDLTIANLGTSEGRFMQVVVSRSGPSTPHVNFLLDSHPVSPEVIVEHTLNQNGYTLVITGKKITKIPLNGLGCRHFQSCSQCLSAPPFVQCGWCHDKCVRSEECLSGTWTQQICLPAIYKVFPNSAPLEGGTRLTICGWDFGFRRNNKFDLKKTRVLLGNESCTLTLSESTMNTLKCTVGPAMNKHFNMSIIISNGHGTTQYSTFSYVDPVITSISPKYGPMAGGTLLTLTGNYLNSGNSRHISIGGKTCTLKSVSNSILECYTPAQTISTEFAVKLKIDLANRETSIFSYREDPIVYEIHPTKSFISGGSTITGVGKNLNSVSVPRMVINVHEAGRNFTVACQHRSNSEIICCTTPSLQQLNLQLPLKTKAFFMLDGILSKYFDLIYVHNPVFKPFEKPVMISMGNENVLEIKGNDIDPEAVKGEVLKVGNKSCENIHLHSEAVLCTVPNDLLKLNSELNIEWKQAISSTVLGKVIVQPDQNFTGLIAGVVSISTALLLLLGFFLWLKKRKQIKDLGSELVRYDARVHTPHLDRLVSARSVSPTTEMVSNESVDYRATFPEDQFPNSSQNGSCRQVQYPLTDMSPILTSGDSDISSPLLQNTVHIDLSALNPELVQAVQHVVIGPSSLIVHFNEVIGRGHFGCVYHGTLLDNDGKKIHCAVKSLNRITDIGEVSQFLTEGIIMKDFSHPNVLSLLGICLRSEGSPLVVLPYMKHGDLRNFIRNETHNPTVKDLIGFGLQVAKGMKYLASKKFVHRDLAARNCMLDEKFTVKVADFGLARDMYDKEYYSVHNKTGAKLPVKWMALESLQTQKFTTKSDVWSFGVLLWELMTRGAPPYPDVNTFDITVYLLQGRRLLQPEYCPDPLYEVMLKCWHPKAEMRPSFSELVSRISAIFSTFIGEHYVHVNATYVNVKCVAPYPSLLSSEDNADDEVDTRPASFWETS

NUAK1 (human) = NUAK1 (human) (UniProt O60285); conditions: compound 10.0 µM; ATP 1 µM
Sequence of NUAK1 (human) (O60285 whole entry, looked up): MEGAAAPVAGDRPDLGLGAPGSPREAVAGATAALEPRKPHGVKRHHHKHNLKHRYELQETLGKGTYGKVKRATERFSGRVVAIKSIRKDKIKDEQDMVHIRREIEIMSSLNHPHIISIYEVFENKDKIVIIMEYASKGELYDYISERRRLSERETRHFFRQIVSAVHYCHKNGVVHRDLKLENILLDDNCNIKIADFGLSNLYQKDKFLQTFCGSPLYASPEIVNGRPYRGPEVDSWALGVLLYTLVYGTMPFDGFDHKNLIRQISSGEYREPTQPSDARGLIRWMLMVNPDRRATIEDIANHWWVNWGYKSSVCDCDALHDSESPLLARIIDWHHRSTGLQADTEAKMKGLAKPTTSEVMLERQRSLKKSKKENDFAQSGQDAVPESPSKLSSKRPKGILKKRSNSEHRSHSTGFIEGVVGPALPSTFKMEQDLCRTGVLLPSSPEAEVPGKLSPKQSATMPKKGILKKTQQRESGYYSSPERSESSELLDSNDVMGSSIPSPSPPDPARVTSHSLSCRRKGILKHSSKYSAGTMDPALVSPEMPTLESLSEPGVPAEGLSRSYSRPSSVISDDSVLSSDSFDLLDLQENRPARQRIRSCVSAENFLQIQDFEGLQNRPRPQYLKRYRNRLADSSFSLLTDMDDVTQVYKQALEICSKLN

PDGFRB (human) = PDGFRB (human) (UniProt P09619); conditions: compound 10.0 µM; ATP 0.3 µM
PLK1 (human) = PLK1 (human) (UniProt P53350); conditions: compound 10.0 µM; ATP 1 µM
PLK4 (human) = PLK4 (human) (UniProt O00444); conditions: compound 10.0 µM; ATP 0.3 µM
PTK2 (human) = PTK2 (human) (UniProt Q05397); conditions: compound 10.0 µM; ATP 1 µM
SRC (human) = SRC (human) (UniProt P12931); conditions: compound 10.0 µM; ATP 0.3 µM
TEK (human) = TEK (human) (UniProt Q02763); conditions: compound 10.0 µM; ATP 1 µM

Sequence of AURKA (human) (O14965 whole entry, looked up): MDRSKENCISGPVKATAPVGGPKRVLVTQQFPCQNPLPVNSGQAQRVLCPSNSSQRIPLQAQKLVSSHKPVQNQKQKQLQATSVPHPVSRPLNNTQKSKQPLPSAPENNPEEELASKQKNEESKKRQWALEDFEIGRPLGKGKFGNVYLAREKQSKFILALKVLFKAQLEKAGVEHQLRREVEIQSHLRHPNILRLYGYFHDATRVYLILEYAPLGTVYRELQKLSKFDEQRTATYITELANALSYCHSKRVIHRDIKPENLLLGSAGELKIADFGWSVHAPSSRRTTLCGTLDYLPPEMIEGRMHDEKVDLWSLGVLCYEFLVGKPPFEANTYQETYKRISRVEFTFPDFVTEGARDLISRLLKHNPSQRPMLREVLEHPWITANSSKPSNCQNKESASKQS
Sequence of AKT1 (human) (P31749 whole entry, looked up): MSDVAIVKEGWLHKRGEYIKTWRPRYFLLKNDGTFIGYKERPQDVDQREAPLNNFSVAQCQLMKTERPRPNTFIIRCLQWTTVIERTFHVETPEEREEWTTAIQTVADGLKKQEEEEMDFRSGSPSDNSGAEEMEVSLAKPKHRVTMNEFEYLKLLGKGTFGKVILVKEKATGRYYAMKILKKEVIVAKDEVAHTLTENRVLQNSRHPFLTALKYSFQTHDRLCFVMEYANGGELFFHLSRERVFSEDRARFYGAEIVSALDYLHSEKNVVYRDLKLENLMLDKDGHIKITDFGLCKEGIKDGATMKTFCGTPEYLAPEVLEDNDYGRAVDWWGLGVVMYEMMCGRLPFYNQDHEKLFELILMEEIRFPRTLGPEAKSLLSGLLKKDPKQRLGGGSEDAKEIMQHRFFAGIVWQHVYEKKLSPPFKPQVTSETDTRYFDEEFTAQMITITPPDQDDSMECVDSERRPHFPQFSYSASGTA

| SMILES | residual activity (AKT1 (human)) [%] | residual activity (AURKA (human)) [%] | residual activity (AURKB (human)) [%] | residual activity (AXL (human)) [%] | residual activity (CDK2 CCNA2 (human)) [%] | residual activity (CDK4 CCND1 (human)) [%] | residual activity (CSNK2A1 (human)) [%] | residual activity (EGFR (human)) [%] | residual activity (EPHB4 (human)) [%] | residual activity (ERBB2 (human)) [%] | residual activity (IGF1R (human)) [%] | residual activity (KDR (human)) [%] | residual activity (MAP3K8 (human)) [%] | residual activity (MAPK10 (human)) [%] | residual activity (MAPK14 (human)) [%] | residual activity (MET (human)) [%] | residual activity (NUAK1 (human)) [%] | residual activity (PDGFRB (human)) [%] | residual activity (PLK1 (human)) [%] | residual activity (PLK4 (human)) [%] | further results |
| --- | --- | --- | --- | --- | --- | --- | --- | --- | --- | --- | --- | --- | --- | --- | --- | --- | --- | --- | --- | --- | --- |
| On1c(/C=C/c2ccccc2)nc(-c2ccncc2)c1-c1ccc(F)cc1 | 76 | 18 | 18 | 42 | 20 | 21 | 68 | 1 | 19 | 4 | 13 | 9 | 48 | 9 | 3 | 23 | 51 | 31 | 51 | 7 | residual activity (PTK2 (human)): 65%; residual activity (SRC (human)): 5%; residual activity (TEK (human)): 5% |
| CSc1nc(-c2ccnc(NC(=O)C3CC3)c2)c(-c2ccc(F)cc2)n1C | 121 | 31 | 47 | 18 | 234 | 109 | 89 | 11 | 9 | 17 | 53 | 2 | 104 | 11 | 1 | 81 | 109 | 29 | 114 | 56 | residual activity (PTK2 (human)): 53%; residual activity (SRC (human)): 13%; residual activity (TEK (human)): 8% |
| COc1ccc(C(=O)Nc2cc(-c3nc(SC)n(C)c3-c3ccc(F)cc3)ccn2)cc1 | 113 | 97 | 87 | 54 | 37 | 76 | 72 | 7 | 33 | 17 | 23 | 8 | 87 | 18 | 3 | 52 | 95 | 48 | 81 | 20 | residual activity (PTK2 (human)): 131%; residual activity (SRC (human)): 9%; residual activity (TEK (human)): 21% |
| On1c(CCc2ccccc2)nc(-c2ccncc2)c1-c1ccc(F)cc1 | 144 | 44 | 41 | 79 | 54 | 84 | 82 | 1 | 32 | 2 | 17 | 4 | 78 | 14 | 0 | 44 | 100 | 37 | 100 | 16 | residual activity (PTK2 (human)): 87%; residual activity (SRC (human)): 4%; residual activity (TEK (human)): 18% |
| CSc1nc(-c2ccnc(NC(=O)C3CCCC3)c2)c(-c2ccc(F)cc2)n1C | 100 | 72 | 92 | 62 | 88 | 105 | 91 | 30 | 39 | 48 | 53 | 49 | 88 | 16 | 3 | 91 | 100 | 65 | 107 | 46 | residual activity (PTK2 (human)): 80%; residual activity (SRC (human)): 43%; residual activity (TEK (human)): 35% |
| CSc1nc(-c2ccnc(NC(C)=O)c2)c(-c2ccc(F)cc2)n1C | 154 | 58 | 78 | 52 | 111 | 102 | 88 | 17 | 32 | 31 | 78 | 13 | 74 | 11 | 1 | 79 | 104 | 26 | 109 | 70 | residual activity (PTK2 (human)): 71%; residual activity (SRC (human)): 29%; residual activity (TEK (human)): 24% |

Continued, in another order:

| residual activity (AKT1 (human)) [%] | residual activity (AURKA (human)) [%] | residual activity (AURKB (human)) [%] | residual activity (AXL (human)) [%] | residual activity (CDK2 CCNA2 (human)) [%] | residual activity (CDK4 CCND1 (human)) [%] | residual activity (CSNK2A1 (human)) [%] | residual activity (EGFR (human)) [%] | residual activity (EPHB4 (human)) [%] | residual activity (ERBB2 (human)) [%] | residual activity (IGF1R (human)) [%] | residual activity (KDR (human)) [%] | residual activity (MAP3K8 (human)) [%] | residual activity (MAPK10 (human)) [%] | residual activity (MAPK14 (human)) [%] | residual activity (MET (human)) [%] | residual activity (NUAK1 (human)) [%] | residual activity (PDGFRB (human)) [%] | residual activity (PLK1 (human)) [%] | residual activity (PLK4 (human)) [%] | SMILES | further results |
| --- | --- | --- | --- | --- | --- | --- | --- | --- | --- | --- | --- | --- | --- | --- | --- | --- | --- | --- | --- | --- | --- |
| 98 | 88 | 88 | 71 | 54 | 99 | 87 | 31 | 55 | 30 | 49 | 52 | 85 | 56 | 10 | 81 | 89 | 80 | 92 | 74 | Fc1ccc(-c2[nH]c(SCCCc3ccccc3)nc2-c2ccncc2)cc1 | residual activity (PTK2 (human)): 99%; residual activity (SRC (human)): 33%; residual activity (TEK (human)): 65% |
| 75 | 38 | 32 | 61 | 32 | 36 | 73 | 2 | 21 | 3 | 16 | 17 | 35 | 11 | 0 | 25 | 45 | 34 | 39 | 5 | Fc1ccc(-c2[nH]c(/C=C/c3ccccc3)nc2-c2ccncc2)cc1 | residual activity (PTK2 (human)): 82%; residual activity (SRC (human)): 8%; residual activity (TEK (human)): 6% |
| 100 | 79 | 71 | 65 | 42 | 84 | 76 | 36 | 40 | 25 | 23 | 33 | 75 | 72 | 16 | 51 | 122 | 53 | 115 | 21 | CSc1ccc(CSc2nc(-c3ccncc3)c(-c3ccc(F)cc3)[nH]2)cc1 | residual activity (PTK2 (human)): 130%; residual activity (SRC (human)): 20%; residual activity (TEK (human)): 21% |
| 147 | 78 | 63 | 85 | 64 | 87 | 71 | 49 | 56 | 31 | 33 | 51 | 79 | 64 | 11 | 54 | 94 | 54 | 94 | 33 | CSc1ccc(CSc2nc(-c3ccncc3)c(-c3ccc(Br)cc3)[nH]2)cc1 | residual activity (PTK2 (human)): 122%; residual activity (SRC (human)): 30%; residual activity (TEK (human)): 21% |
